Data published in the Deep4Chem optical property database.
Several values for one entry are separate records, joined by “and”; a condition that tells them apart may be missing. Equal values may be shown once. Each block holds one compound with its values, some of them ahead of it.

Test: solvent given as SMILES

SMILES: CC(C)(C)c1ccc(N(c2ccc(C(C)(C)C)cc2)c2ccc3c(N(c4ccc(C(C)(C)C)cc4)c4ccc(C(C)(C)C)cc4)cc4c5cc(N(c6ccc(C(C)(C)C)cc6)c6ccc(C(C)(C)C)cc6)ccc5c(N(c5ccc(C(C)(C)C)cc5)c5ccc(C(C)(C)C)cc5)cc4c3c2)cc1
emission maximum (in CC#N): 470 nm | emission maximum (in CCCCCC): 456 nm | emission maximum (in ClCCl): 471 nm

SMILES: CC(C)n1c2cc(O)c(F)cc2c(=O)c2cc(F)c(O)cc21
emission maximum (in CCO): 438 nm

SMILES: Cc1ccc(C2=Nc3cccc4[n+]3[B-](F)(O2)OC(c2ccc(C)cc2)=N4)cc1
emission maximum (in ClCCl): 457 nm

SMILES: CCCCCCCCn1c2ccc(/C=C/c3ccc(N(c4ccccc4)c4ccccc4)cc3)cc2c2cc3c(cc21)c1cc(/C=C/c2ccc(N(c4ccccc4)c4ccccc4)cc2)ccc1n3CCCCCCCC
emission maximum (in Cc1ccccc1): 453 nm

SMILES: Cc1ccc(/C2=c3\cc/c(o3)=C(\c3ccc(C)cc3)c3ccc([nH]3)-c3ccc4n3[P-](=O)(=O)[N+]3=C(C=CC3=C4c3ccc[nH]3)c3ccc2[nH]3)cc1
emission maximum (in ClC(Cl)Cl): 740 nm

SMILES: c1ccc(-c2cc(-c3ccccc3)cc(-c3ccc4c(c3)C3(c5cc(-c6cc(-c7ccccc7)cc(-c7ccccc7)c6)ccc5-4)c4ccccc4-c4c3c3c5ccccc5ccc3c3ccccc43)c2)cc1
emission maximum (in C1CCOC1): 420 nm

SMILES: Cc1c(C)c(B(c2c(C)c(C)c(C#N)c(C)c2C)c2c(C)c(C)c(N3c4ccccc4Oc4ccccc43)c(C)c2C)c(C)c(C)c1C#N
emission maximum (in c1ccc([Si](c2ccccc2)(c2ccc(-n3c4ccccc4c4ccccc43)cc2)c2ccc(-n3c4ccccc4c4ccccc43)cc2)cc1): 533 nm

SMILES: N#Cc1cc2ccc(O)cc2oc1=O
emission maximum (in C1CCCCC1): 411 nm | emission maximum (in C1CCOC1): 405 nm | emission maximum (in CC#N): 402 nm | emission maximum (in CCOC(C)=O): 406 nm | emission maximum (in CS(C)=O): 401 nm | emission maximum (in ClC(Cl)Cl): 408 nm | emission maximum (in O): 410 nm

SMILES: CSc1sc(C(N)=O)c2nnn(C)c(=O)c12
emission maximum (in C1CCOC1): 496 nm | emission maximum (in CC#N): 505 nm | emission maximum (in CCO): 519 nm | emission maximum (in CN(C)C=O): 514 nm | emission maximum (in CO): 521 nm | emission maximum (in CS(C)=O): 527 nm

SMILES: Oc1ccccc1/C=N/N=C/c1ccccc1O
emission maximum (in CC#N): 588.24 nm | emission maximum (in CC(C)CCCC(C)CCCC(C)CCCCC(C)CCCC(C)CCCC(C)C): 583.09 nm | emission maximum (in CCCCCC): 578.03 nm | emission maximum (in CCCCCCCCC): 581.4 nm | emission maximum (in CCCCCCCCCCCCCCCC): 581.4 nm | emission maximum (in CCCCl): 584.8 nm | emission maximum (in CCN(CC)CC): 576.37 nm | emission maximum (in CCO): 579.71 nm | emission maximum (in CCOCC): 588.24 nm | emission maximum (in CO): 573.07 nm | emission maximum (in OC(C(F)(F)F)C(F)(F)F): 571.43 nm | emission maximum (in OCC(F)(F)F): 573.07 nm | emission maximum (in OCCO): 584.8 nm

SMILES: c1cc2cc(c1)c1cccc(c1)c1cccc(c1)c1cccc(c1)c1cccc(c1)c1cccc2c1
emission maximum (in ClC(Cl)Cl): 337 nm

SMILES: CCN1\C(=C/C=C/C=C/C2=[N+](CC)c3ccc4cc(Br)ccc4c3C2(C)C)C(C)(C)c2c1ccc1cc(Br)ccc21
emission maximum (in C1CCOC1): 709 nm | emission maximum (in CC#N): 699 nm | emission maximum (in CC(C)=O): 703 nm | emission maximum (in CCO): 705 nm | emission maximum (in CN(C)C=O): 705 nm | emission maximum (in CO): 702 nm | emission maximum (in CS(C)=O): 709 nm | emission maximum (in ClCCl): 714 nm

SMILES: CCCCCCOc1ccc(N(c2ccc(OCCCCCC)cc2)c2ccc(-c3sc(-c4ccc(N(c5ccc(OCCCCCC)cc5)c5ccc(OCCCCCC)cc5)cc4)c4nc(-c5ccccc5)c(-c5ccccc5)nc34)cc2)cc1
emission maximum (in C1CCOC1): 770 nm | emission maximum (in CC(C)=O): 793 nm | emission maximum (in CCOC(C)=O): 768 nm | emission maximum (in CCOCC): 751 nm | emission maximum (in CN(C)C=O): 806 nm | emission maximum (in Cc1ccccc1): 748 nm | emission maximum (in ClC(Cl)Cl): 777 nm | emission maximum (in ClCCl): 793 nm

SMILES: CN(C)c1ccc2c3c(ccc2c1)C(=O)CCC3
emission maximum (in C1CCCCC1): 407 nm | emission maximum (in CC#N): 448 nm | emission maximum (in CC(C)O): 482 nm | emission maximum (in CCC(C)=O): 443 nm | emission maximum (in CCO): 489 nm | emission maximum (in CCOC(C)=O): 429 nm | emission maximum (in CS(C)=O): 453 nm | emission maximum (in Cc1ccccc1): 417 nm | emission maximum (in ClCCl): 440 nm | emission maximum (in Clc1ccccc1): 423 nm

SMILES: N#Cc1ccc(N/N=C/c2ccc3ccccc3c2O)cc1
emission maximum (in CC#N): 446 nm | emission maximum (in CCCCCC): 415 nm | emission maximum (in CO): 482 nm | emission maximum (in CS(C)=O): 456 nm | emission maximum (in ClC(Cl)Cl): 425 nm

SMILES: COc1ccc2c(c1)c1cc(OC)ccc1n2-c1ccc(S(=O)(=O)c2ccc(-n3c4ccc(OC)cc4c4cc(OC)ccc43)cc2)cc1
emission maximum (in Cc1ccccc1): 445 nm

SMILES: CCC1(CC)c2cc(C=O)ccc2-c2ccc(N(C)C)cc21
emission maximum (in C1CCCCC1): 416 nm | emission maximum (in CC#N): 521 nm | emission maximum (in CCO): 562 nm | emission maximum (in CCOCC): 436 nm | emission maximum (in CS(C)=O): 532 nm | emission maximum (in ClCCl): 491 nm | emission maximum (in c1ccccc1): 437 nm

SMILES: CN(C)c1ccc(/C=C/c2cc[n+](C)cc2)cc1
emission maximum (in C1CCOC1): 590 nm | emission maximum (in CC1COC(=O)O1): 600 nm | emission maximum (in CC#N): 625 nm and 605 nm | emission maximum (in CC(C)=O): 602 nm | emission maximum (in CC(C)O): 591 nm | emission maximum (in CCO): 594 nm | emission maximum (in CCOC(C)=O): 595 nm | emission maximum (in CN(C)C=O): 596 nm | emission maximum (in CO): 596 nm | emission maximum (in CS(C)=O): 610 nm | emission maximum (in ClC(Cl)Cl): 585 nm | emission maximum (in ClCCl): 608 nm | emission maximum (in O): 624 nm and 597 nm | emission maximum (in c1ccncc1): 605 nm

SMILES: CN(C)c1ccc(C2=Nc3sc4cc(C(F)(F)F)ccc4[n+]3[B-](F)(F)O2)cc1
emission maximum (in C1CCOC1): 486 nm | emission maximum (in CC#N): 500 nm | emission maximum (in CC(C)=O): 495 nm | emission maximum (in Cc1ccccc1): 460 nm | emission maximum (in ClCCl): 478 nm

SMILES: C(#Cc1cc(C#Cc2cccs2)c(C#Cc2cccs2)c(C#Cc2cccs2)c1C#Cc1cccs1)c1cccs1
emission maximum (in ClCCl): 425 nm

SMILES: CCCCCCCCCCCCN1C(=O)c2ccc3c4ccc5c6c(ccc(c7ccc(c2c37)C1=O)c64)C(=O)NC5=O
emission maximum (in CN(C)C=O): 535 nm

SMILES: CC(=O)c1ccc(-c2cnc3nn4ccccc4c3c2)cc1
emission maximum (in C1CCOC1): 420 nm

SMILES: CCNc1cc2oc3c/c(=[NH+]\CC)c(C)cc-3c(-c3ccccc3C(=O)OCC)c2cc1C
emission maximum (in CC#N): 552 nm | emission maximum (in CCO): 552 nm | emission maximum (in CN(C)C=O): 532 nm | emission maximum (in CO): 555 nm | emission maximum (in O): 554 nm

SMILES: COc1ccc(/C=C/c2ccc(-c3nnc(-c4ccc(-c5cc6ccccc6s5)cc4)o3)cc2)cc1
emission maximum (in CC#N): 441 nm | emission maximum (in CC(C)=O): 449 nm | emission maximum (in CCCCCCCC): 407 nm | emission maximum (in CCCCCCCCCCO): 427 nm | emission maximum (in CCCCCCCCO): 433 nm | emission maximum (in CCCCCO): 436 nm | emission maximum (in CCCO): 438 nm | emission maximum (in CN(C)C=O): 463 nm | emission maximum (in CO): 445 nm | emission maximum (in CS(C)=O): 459 nm

SMILES: O=Cc1nc2ccc(C#Cc3ccc(N(c4ccccc4)c4ccccc4)cc3)cc2s1
emission maximum (in Cc1ccccc1): 519 nm

Second part, the compound after the results:

emission maximum (in C1COCCO1): 474 nm
SMILES: COC(=O)c1ccc(/C=C2\N=C(c3ccc(OC)c(OC)c3)OC2=O)cc1

emission maximum (in ClCCl): 531 nm
SMILES: [O-][n+]1c(/C=C/c2ccc(/C=C/c3ccccc3)cc2)nc(N2CCOCC2)c2c1CCCC2

emission maximum (in C1COCCO1): 411 nm
SMILES: c1ccc(-c2nc(-c3nc(-c4ccccc4)c(-c4ccccc4)o3)oc2-c2ccccc2)cc1

emission maximum (in ClC(Cl)Cl): 642 nm
SMILES: F[B-]1(F)n2c(cc(Br)c2Br)C(c2ccccc2)=C2C=C(Br)C(c3ccc[nH]3)=[N+]21

emission maximum (in CC#N): 417 nm | emission maximum (in CCCCCCCCCCCCCCCC): 388 nm | emission maximum (in CO): 449 nm | emission maximum (in ClC(Cl)Cl): 409 nm | emission maximum (in c1ccccc1): 400 nm
SMILES: CC(C)(C)C1Nc2ccccc2C(=O)N1c1ccccc1 (stereo not drawn)

emission maximum (in ClC(Cl)Cl): 434 nm
SMILES: F[B-]1(F)OC(c2ccc(C(F)(F)F)cc2)=Cc2ccc3ccccc3[n+]21

emission maximum (in ClCCl): 560 nm
SMILES: F[B-]1(F)N2C=CN=CC2=[N+]2[N+]1=Cc1c(-c3ccccc3)cc(-c3ccccc3)n1[B-]2(F)F

emission maximum (in ClC(Cl)Cl): 503 nm
SMILES: CCCCCCN1C(=O)c2cccc3c(-c4ccc(OC)s4)ccc(c23)C1=O

emission maximum (in C1CCOC1): 458 nm
SMILES: COc1cc2c(cc1-c1ccc(C(F)(F)F)cc1)Cc1c3c(c4c(c1-2)-c1cc(OC)c(-c2ccc(C(F)(F)F)cc2)cc1C4)C(=O)N(CCC(C)C)C3=O

emission maximum (in ClCCl): 521 nm
SMILES: CCCCCCN1C(=O)c2cccc3c(-c4ccc(-c5cc(-c6ccc(C)cc6)n(-c6ccccc6)n5)s4)ccc(c23)C1=O

emission maximum (in CCO): 715 nm
SMILES: CCN(C(C)=O)c1cc2c(cc1C)C(c1ccccc1C(=O)O)=C1CCCC(/C=C/C3=[N+](C)c4ccc5ccccc5c4C3(C)C)=C1O2

emission maximum (in ClCCl): 583 nm
SMILES: COc1ccccc1C1=[N+]2C(=C(c3ccccc3)c3c4c(c(-c5ccccc5OC)n3[B-]2(F)F)C2CCC4CC2)C2=C1C1CCC2CC1

emission maximum (in C1CCOC1): 565 nm
SMILES: CCCc1ccc2c(c1)cc1n2B2c3c4c-1cccc4cc1cccc(c31)-c1cc3cc(CCC)ccc3n12

emission maximum (in ClC(Cl)Cl): 472 nm
SMILES: CCN(CC)c1ccc2cc(-c3ccc(-c4c5ccccc5c(-c5ccc(-c6cc7ccc(N(CC)CC)cc7oc6=O)cc5)c5ccccc45)cc3)c(=O)oc2c1

emission maximum (in CO): 582 nm
SMILES: C#CCOc1ccc(/C=C/C2=[N+]3C(=C(c4ccc(N5CCCCC5)cc4)c4c(C)cc(C)n4[B-]3(F)F)C(C)=C2)cc1

emission maximum (in ClCCl): 510 nm
SMILES: Cn1cc(-c2nc3ccccc3nc2C#Cc2ccccc2)c2ccccc21

emission maximum (in CCCCCC): 464 nm
SMILES: CC(C)[Si](C#Cc1c2ccccc2c(C#C[Si](C(C)C)(C(C)C)C(C)C)c2nc3c(nc12)C1c2ccccc2C3c2ccccc21)(C(C)C)C(C)C

emission maximum (in CS(C)=O): 341 nm
SMILES: COc1ccc(NC(=O)C(C(=O)Nc2ccc(OC)cc2)C(c2cc(F)ccc2O)c2c[nH]c3ccc(OC)cc23)cc1 (stereo not drawn)

emission maximum (in ClCCl): 567 nm
SMILES: CCCCC1=C(CCCC)c2cccc3c2c(cc2nc4ccccc4nc23)O1

emission maximum (in ClC(Cl)Cl): 385 nm
SMILES: CCCCC1(CCCC)c2ccccc2-c2ccc(-c3c4c(nc5ccccc35)-c3cc5c(cc3CC4)-c3nc4ccccc4c(-c4ccc6c(c4)C(CCCC)(CCCC)c4ccccc4-6)c3CC5)cc21

emission maximum (in ClCCl): 609 nm
SMILES: COc1ccc(C2=C(c3ccc(OC)cc3)c3cccc4c5c(cc(c34)O2)=NC2C=C(Br)C(Br)=CC2N=5)cc1 (stereo not drawn)
